According to patent US20150366943A1, “MOBILIZATION OF HEMATOPOIETIC STEM CELLS FROM BONE MARROW TO BLOOD USING A COMBINATION OF A ROBO4 RECEPTOR ANTAGONIST AND A CXCR4 ANTAGONIST OR hrVEGF-165 AND A CXCR4 ANTAGONIST” (The Regents of the University of California, priority 2012, published 2015):

B1: Slit2: the Robo ligand Slit2, a large secreted protein (protein, UniProt O94813 31-1529, looked up)
Slit homolog 2 protein: QCSCSGSTVDCHGLALRSVPRNIPRNTERLDLNGNNITRITKTDFAGLRHLRVLQLMENKISTIERGAFQDLKELERLRLNRNHLQLFPELLFLGTAKLYRLDLSENQIQAIPRKAFRGAVDIKNLQLDYNQISCIEDGAFRALRDLEVLTLNNNNITRLSVASFNHMPKLRTFRLHSNNLYCDCHLAWLSDWLRQRPRVGLYTQCMGPSHLRGHNVAEVQKREFVCSGHQSFMAPSCSVLHCPAACTCSNNIVDCRGKGLTEIPTNLPETITEIRLEQNTIKVIPPGAFSPYKKLRRIDLSNNQISELAPDAFQGLRSLNSLVLYGNKITELPKSLFEGLFSLQLLLLNANKINCLRVDAFQDLHNLNLLSLYDNKLQTIAKGTFSPLRAIQTMHLAQNPFICDCHLKWLADYLHTNPIETSGARCTSPRRLANKRIGQIKSKKFRCSAKEQYFIPGTEDYRSKLSGDCFADLACPEKCRCEGTTVDCSNQKLNKIPEHIPQYTAELRLNNNEFTVLEATGIFKKLPQLRKINFSNNKITDIEEGAFEGASGVNEILLTSNRLENVQHKMFKGLESLKTLMLRSNRITCVGNDSFIGLSSVRLLSLYDNQITTVAPGAFDTLHSLSTLNLLANPFNCNCYLAWLGEWLRKKRIVTGNPRCQKPYFLKEIPIQDVAIQDFTCDDGNDDNSCSPLSRCPTECTCLDTVVRCSNKGLKVLPKGIPRDVTELYLDGNQFTLVPKELSNYKHLTLIDLSNNRISTLSNQSFSNMTQLLTLILSYNRLRCIPPRTFDGLKSLRLLSLHGNDISVVPEGAFNDLSALSHLAIGANPLYCDCNMQWLSDWVKSEYKEPGIARCAGPGEMADKLLLTTPSKKFTCQGPVDVNILAKCNPCLSNPCKNDGTCNSDPVDFYRCTCPYGFKGQDCDVPIHACISNPCKHGGTCHLKEGEEDGFWCICADGFEGENCEVNVDDCEDNDCENNSTCVDGINNYTCLCPPEYTGELCEEKLDFCAQDLNPCQHDSKCILTPKGFKCDCTPGYVGEHCDIDFDDCQDNKCKNGAHCTDAVNGYTCICPEGYSGLFCEFSPPMVLPRTSPCDNFDCQNGAQCIVRINEPICQCLPGYQGEKCEKLVSVNFINKESYLQIPSAKVRPQTNITLQIATDEDSGILLYKGDKDHIAVELYRGRVRASYDTGSHPASAIYSVETINDGNFHIVELLALDQSLSLSVDGGNPKIITNLSKQSTLNFDSPLYVGGMPGKSNVASLRQAPGQNGTSFHGCIRNLYINSELQDFQKVPMQTGILPGCEPCHKKVCAHGTCQPSSQAGFTCECQEGWMGPLCDQRTNDPCLGNKCVHGTCLPINAFSYSCKCLEGHGGVLCDEEEDLFNPCQAIKCKHGKCRLSGLGQPYCECSSGYTGDSCDREISCRGERIRDYYQKQQGYAACQTTKKVSRLECRGGCAGGQCCGPLRSKRRKYSFECTDGSSFVDEVEKVVKCGCTRCVS

How the values were obtained:
[1] = test system: HSC localization to the BM; settings: three hours post-injection
Protocol: BM cells were labeled with CFSE labeling dye (Invitrogen) for 5 minutes at ambient temperature, followed by antibody labeling and isolation of cKit^+/Lin^−/Sca1^+/CFSE^hi cells by two rounds of FACS. Sorted cells were split in two equal parts and incubated with or without AMD3100 ([…]) on ice for 30 minutes. Cells were washed, pelleted by centrifugation, and resuspended in HBSS at 400,000 cells/ml. Hosts, lethally irradiated 24 hours prior to transplantation, were injected IV with 40,000 cells in 100 μI. Three hours post-transplant, tissues were harvested from individual mice and analyzed for CFSE labeled cells by flow cytometry. Total cell numbers were counted using a Beckman Coulter Cell Counter.

[2] = test system: hematopoietic stem cells (HSC) and progenitors in peripheral blood; settings: previous reports (Bonig 2009; Broxmeyer 2005); cited from earlier work
[3] = test system: hematopoietic stem cells (HSC) and progenitors in peripheral blood
Protocol: Briefly, mice were injected IP with 200 mg/kg of Cytoxan in HBSS (Sigma-Aldrich) on day −1, followed by 2 or 4 sequential daily sub-cutaneous injections of […] rhG-CSF (Humanzyme, Chicago, Ill.). Tissues were analyzed on day 2 or 4, as indicated (FIGS. 3A, 4A). A cohort from each group was injected IV with 5 mg/kg of AMD3100 1 hour prior to sacrifice. For AMD3100 alone, mice were treated with two serial AMD3100 (5 mg/kg) IV injections one hour apart. Peripheral blood, spleen, and bone marrow were isolated one hour later and processed for cell counts and flow cytometry analysis to determine the numbers and frequencies of each cell population.

[4] = test system: BM cell (HSC, T cell) migration toward Sdf1; assay: Modified Boyden (transwell) migration assay; type: cell-based, mice
Protocol: BM cells (lineage depleted by magnetic selection, when appropriate), were preincubated at 37° C. for one hour, then placed in the upper chamber of a transwell insert (5 μm pore size). Bottom and/or top wells contained Sdf1 (100 ng/ml) and/or Slit2, as indicated. Cells were allowed to migrate for 2 hrs at 37° C. before harvesting and analysis by flow cytometry.

HL60 cells = assay: HL60 cell migration toward fMLP; type: cell-based; settings: Slit2, FIG. 11C
Protocol: (A) Purified Sdf1 (100 ng/ml) with and without Slit2 (250 or 500 ng/ml) was placed in bottom wells and the migration of lineage-depleted BM cells after a 2-hour incubation period were quantitated by flow cytometry. […] (B) Slit2 had no effect on T cell migration by itself (black bars) or in combination with Sdf1 (purple bars) in vitro. Experiment performed as in A, except unfractionated BM cells were placed in top wells. (C) Slit2 attenuated HL60 cell migration toward fMLP. Data shown are representative of at least two (C) or three (A and B) independent experiments. Error bars represent SEM. *p<0.03.

wt HSC = assay: In vitro proliferation of HSC; type: cell-based, mice; settings: Slit2 4 ug/ml, FIG. 9E
Protocol: HSC and MPP were isolated and sorted from Robo4^−/− and wt mice as previously described. 90-200 cells were plated per well of either strain into a 96-well U-bottom tissue culture plate and cultured for up to 10 days in IMEM medium (Fisher) supplemented with 10% FBS, 25 ng/ml of IL-11, 25 ng/ml of GM-CSF, 25 ng/ml of SCF, 10 ng/ml IL-3 (Cytokines from Peprotech) and Primocin (Invivogen). On days 3, 5, 7, and 10 FITC-labeled spherobeads (BD Bioscience) were added and triplicate samples were analyzed using a FACSAria. Cell expansion rates were calculated based on the number of beads recovered per 10,000 beads added per well.

Row | Molecule | reduction in donor cells localizing to the BM ([1]; AMD3100 preincubation of wt cells, FIG. 6B) [fold] | BM localization of Robo4-deficient cells treated with AMD3100 ([1]; FIG. 6B) | donor cells in the blood stream ([1]; FIG. 6C) | localization to the spleen ([1]; FIG. 6D) | HSC numbers increase (long-term reconstitution capability of PB cells upon AMD3100 mobilization) [2] | efficiency of AMD3100-induced HSC mobilization in Robo4−/− mice compared to wt mice ([3]; FIG. 4E) | progenitor cell numbers in the blood ([3]; one hour after two sequential AMD3100 injections, wt mice) | circulating HSC ([3]; one hour after two sequential AMD3100 injections, wt mice, FIG. 4D) | increase in PB HSC ([3]; wt mice, AMD3100 mobilization, FIG. 4D) [fold] | cell migration toward Sdf1 after preincubation with AMD3100 ([4]; increasing amounts of AMD3100, FIG. 6A) | concentration giving complete inhibition of HSC migration toward Sdf1 ([4]; preincubation with AMD3100, FIG. 6A) [µM] | HL60 cell migration toward fMLP (HL60 cells) | in vitro proliferation rates of wt HSC (wt HSC) | migration of CD4+T cells toward Sdf1 ([4]; Slit2, FIG. 11B) | HSC migration toward Slit2 ([4]; data not shown) | cell migration toward Sdf1 with Slit2 added ([4]; lineage-depleted BM cells, Sdf1 100 ng/ml, Slit2 250 or 500 ng/ml, 2-hour incubation, FIG. 11A)
1 | c1cc(CN2CCCNCCNCCCNCC2)ccc1CN1CCCNCCNCCCNCC1 [AMD3100] | ~2 | further decrease in BM localization | reciprocal increase | no differences | 1.5-8 fold | much greater | increased robustly | surprisingly few | ~1.5 | dose-dependent decrease | 25 |  |  |  |  | 
2 | B1 |  |  |  |  |  |  |  |  |  |  |  | inhibition | did not affect | not affected | did not detect | No significant differences
